Laboratory results reported in patent US12590065B2, “Levorphanol prodrugs and processes for making and using them” (Zevra Therapeutics, Inc., priority 2017, dated 2026).

Experiment: stability of the deprotected derivative in aqueous solution
Type: physicochemical
Settings: observed after Boc deprotection with 4N HCl in dioxane
Experimental: A solution of 38 in 4N HCl in dioxane (5 mL) was stirred at room temperature for 2 hours. Solvent was evaporated under reduced pressure, the residue was co-evaporated with IPAc and dried to give 40 in quantitative yield. The deprotected derivative 40 was not stable in aqueous solution. Compound 40 was converted to the acetyl derivative 42.

SMILES: CC(C)[C@H](N)C(=O)OCOC(=O)Oc1ccc2c(c1)[C@@]13CCCC[C@H]1[C@@H](C2)N(C)CC3 [Compound 40, 3-(Val-OCH2OC(O))-Levorphanol]
- stability in aqueous solution: not stable
